Data set [1] deals with T1, frataxin (Homo sapiens, UniProt Q16595).
T1 sequence (Q16595 42-210): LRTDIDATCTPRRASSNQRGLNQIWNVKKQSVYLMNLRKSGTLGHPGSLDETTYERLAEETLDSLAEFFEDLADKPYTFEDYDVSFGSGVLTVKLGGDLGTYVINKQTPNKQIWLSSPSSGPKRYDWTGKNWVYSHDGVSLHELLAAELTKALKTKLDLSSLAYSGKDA
Put plainly: Frataxin accumulation in FRDA lymphoblasts (FACS, SDS-PAGE/western blot). The settings on record: 50 μM, 6 days. The data set is classed as cell-based. Here is the method:
Human embryonic kidney HEK-293 cells and Hela cells were maintained in DMEM supplemented with 10% FBS. HEK-293 were transfected with the calcium/phosphate precipitation method, using 20 μg total DNA (10 μg pIRES-frataxin and 10 μg HA-Ub, or corresponding empty vectors) on 10 cm dishes. Hela cells were transfected using Lipofectamine 2000 reagents (Invitrogen), according to manufacturer's instructions. Where indicated, the day after transfection, cells were treated for 16 h with 10 μM proteasome inhibitors, MG132 or Lactacystin, or 50 ng/ml DUB inhibitor Ubiquitin-Aldehyde. Flp-In-HEK-293 cells (Invitrogen) are HEK-293 variants allowing the stable and isogenic integration and expression of a transfected gene. Flp-In-HEK-293 cells were maintained in DMEM supplemented with 10% FBS and transfected with the calcium/phosphate precipitation method. Briefly, cells were plated on 10 cm dishes and transfected with 10 μg total DNA. The HEK-293 clone stably expressing frataxin^1-210 was previously described (4). […]
(§1) Cell extracts were prepared in modified RIPA buffer (10 mM sodium phosphate pH7.2, 150 mM NaCl, 1% Na deoxycholate, 0.1% SDS, 1% Np40, 2 mM EDTA) or IP buffer (50 mM Tris-HCl, pH 7.5, 150 mM NaCl, 1% Nonidet P-40, 5 mM EDTA, 5 mM EGTA) supplemented with Complete protease inhibitor cocktail and 2 mM N-Ethylmaleimide (NEM). For immunoblotting, 100 μg of protein extract were separated on 12% SDS-PAGE, blotted onto nitrocellulose membrane and detected with specific antibodies. […] Immunocomplexes were then resolved and analysed by SDS-PAGE. […]
Cells were collected after the indicated treatments and fixed for 20 minutes in 4% paraformaldehyde at room temperature. […] After washing 3 times with PBS cells were analyzed by flow cytometry (Becton Dickinson).
FRDA lymphoblasts GM15850 were cultured for 6 days in the presence of 50 μM Formula IV or Formula VI. Cells were then fixed, stained with anti-frataxin antibody or anti-Bcl2, as a control, and analyzed by flow cytometry. […]
On the technique in general: In western blotting, separated proteins are transferred to a membrane and probed.

For another data set, the system named is aconitase. The data set can be described thus: Aconitase assay in FRDA lymphoblasts. In kind it is cell-based, human. Conditions: FRDA lymphoblasts GM16798; 50 μM; 6 days. Here is the method:
(§2) FRDA lymphoblasts and fibroblasts were washed twice with ice-cold Dulbecco's Phosphate Buffered Saline (DPBS) and lysed in CelLytic M buffer (Sigma-Aldrich) supplemented with Complete protease inhibitor cocktail, EDTA-free (Roche). Aconitase activity was measured spectrophotometrically at 340 nm by a coupled reaction of aconitase and isocitrate dehydrogenase. The assay reactions contained […] of cell extract in 50 mM Hepes pH 7.4, 1 mM sodium citrate, 0.6 mM MnCl2, 0.2 mM NADP^+ and 2 U/ml isocitrate dehydrogenase (Sigma-Aldrich). Citrate synthase activity was assessed using […] of cell extract with the Citrate Synthase Assay Kit (Sigma-Aldrich CS0720). The aconitase activities were normalized with respect to citrate synthase ratios; one milliunit of enzyme was defined as the amount of protein that converted 1 nmol of NADP^+ in 1 min at 25° C. The intracellular ATP content was measured in black microtiter plates using […] of cell extract with the ATP Bioluminescence Assay Kit CLS II (Roche) according to the manufacturer's protocol.
(§3) FRDA lymphoblasts GM16798 were left untreated or treated for 6 days with 50 μM Formula IV. Their genetically-related healthy control GM16241 lymphoblasts were left untreated. […] Aconitase activity and ATP levels were measured as described previously.

Data set [2] has as its system FRDA lymphoblasts GM16798. The data set can be described thus: Intracellular ATP content in FRDA lymphoblasts. In kind it is cell-based, human. The settings on record: 50 μM, 6 days. Here is the method:
as §2, §3

The test system of a further data set is FRDA fibroblasts GM03816. Put plainly: Intracellular ATP content in FRDA fibroblasts. Conditions: 100 μM, 3 days. The data set is classed as cell-based, human. Here is the method:
as §2, with “The aconitase activities were normalized with respect to citrate synthase ratios; one milliunit of enzyme was defined as the amount of protein that converted 1 nmol of NADP^+ in 1 min at 25° C.” left out
FRDA fibroblasts GM03816 were treated for 3 days with 100 μM Formula IV. Cells were then fixed, stained with anti-frataxin antibody or anti-Bcl2, as a control, and analyzed by flow cytometry. […] Total cell extracts were resolved on SDS-PAGE and analyzed with anti-frataxin antibody, or anti-tubulin, as a loading control. […] ATP levels were quantitated as described previously.

Another data set has as its system FRDA cells. The data set can be described thus: Tolerability by FRDA cells. The data set is classed as cell-based, human. Conditions: among the different ubiquitin-competing molecules.
Data set [3] has as its target T1, frataxin. The data set can be described thus: Frataxin accumulation in HEK-293 Flp-In cells stably expressing frataxin 1-210 (WB, FACS). The data set is classed as cell-based. On the set-up: HEK-293 Flp-In cells stably transfected with frataxin^1-210; expressed in transfected cells. Conditions: HEK-293 Flp-In frataxin 1-210; 100 μM; 18 hours. Here is the method: Human embryonic kidney HEK-293 cells and Hela cells were maintained in DMEM supplemented with 10% FBS. HEK-293 were transfected with the calcium/phosphate precipitation method, using 20 μg total DNA (10 μg pIRES-frataxin and 10 μg HA-Ub, or corresponding empty vectors) on 10 cm dishes. Hela cells were transfected using Lipofectamine 2000 reagents (Invitrogen), according to manufacturer's instructions. Where indicated, the day after transfection, cells were treated for 16 h with 10 μM proteasome inhibitors, MG132 or Lactacystin, or 50 ng/ml DUB inhibitor Ubiquitin-Aldehyde. Flp-In-HEK-293 cells (Invitrogen) are HEK-293 variants allowing the stable and isogenic integration and expression of a transfected gene. Flp-In-HEK-293 cells were maintained in DMEM supplemented with 10% FBS and transfected with the calcium/phosphate precipitation method. Briefly, cells were plated on 10 cm dishes and transfected with 10 μg total DNA. The HEK-293 clone stably expressing frataxin^1-210 was previously described (4). The HEK-293 clone stably expressing frataxin^K147R was obtained from cultures in selection medium containing 100 μg/ml hygromycin B (Invitrogen). FRDA lymphoblasts GM15850, GM16798 and […], as well control lymphoblasts GM15851, GM16241 and GM16215, were maintained in RPMI supplemented with 15% FBS. Treatments with specific ubiquitin-competing molecules were performed in 20% FBS containing medium. FRDA fibroblasts GM03816 were maintained in DMEM supplemented with 15% FBS.
Cell extracts were prepared in modified RIPA buffer (10 mM sodium phosphate pH7.2, 150 mM NaCl, 1% Na deoxycholate, 0.1% SDS, 1% Np40, 2 mM EDTA) or IP buffer (50 mM Tris-HCl, pH 7.5, 150 mM NaCl, 1% Nonidet P-40, 5 mM EDTA, 5 mM EGTA) supplemented with Complete protease inhibitor cocktail and 2 mM N-Ethylmaleimide (NEM). For immunoblotting, 100 μg of protein extract were separated on 12% SDS-PAGE, blotted onto nitrocellulose membrane and detected with specific antibodies. For in vivo detection of ubiquitin-conjugates […] and 50 ng/ml Ubiquitin-Aldehyde were added to the lysis buffer. For immunoprecipitation, 5 mg of total protein extract prepared as above were incubated for 1-2 h at 4° C. with specific antibodies, previously conjugated to Protein G-sepharose (GE Healthcare). Immunocomplexes were then resolved and analysed by SDS-PAGE. […] Densitometric analysis was performed using ImageJ software.
Cells were collected after the indicated treatments and fixed for 20 minutes in 4% paraformaldehyde at room temperature. Cells were then permeabilized and blocked in a blocking solution (3% FBS in PBS) containing 0.2% Triton, for 1 hour at room temperature. Cells were then incubated overnight at 4° C. with anti-frataxin monoclonal antibody (MAB-10485, Immunological Science) or anti-Bcl2 monoclonal antibody (sc-509, Santa Cruz) diluted 1:200 in blocking solution. Cells were then washed 3 times in PBS and incubated for 1 hour at room temperature with FITC-conjugated goat anti-mouse IgG/IgM (BD Bioscience Pharmingen) diluted 1:200 in blocking solution. After washing 3 times with PBS cells were analyzed by flow cytometry (Becton Dickinson).
HEK-293 Flp-In cells stably transfected with frataxin^1-210 were treated for the indicated times with 10 μM MG132. Total cell extracts were blotted as in A. One representative experiment out of four performed with similar results is shown in FIG. 18.
Formula III induces frataxin precursor accumulation. HEK-293 Flp-In cells stably expressing frataxin^1-210 were treated for the indicated days with 20 μM of Formula III or 10 μM MG132. Total cell extracts were resolved on SDS-PAGE and analyzed with anti-frataxin antibody, or anti-tubulin, as a loading control.
Formula III induces mature frataxin accumulation. HEK-293 Flp-In cells stably expressing frataxin^1-210 were treated and analyzed as in B. One representative experiment out of three performed with similar results is shown FIG. 5C. […]

In data set [4] the target is T1, frataxin. The data set can be described thus: Frataxin accumulation in FRDA fibroblasts (FACS, SDS-PAGE/western blot). The settings on record: FRDA fibroblasts GM03816; 100 μM; 3 days. The data set is classed as cell-based. On the set-up: HEK-293 Flp-In cells stably transfected with frataxin^1-210; expressed in transfected cells. Here is the method: Human embryonic kidney HEK-293 cells and Hela cells were maintained in DMEM supplemented with 10% FBS. HEK-293 were transfected with the calcium/phosphate precipitation method, using 20 μg total DNA (10 μg pIRES-frataxin and 10 μg HA-Ub, or corresponding empty vectors) on 10 cm dishes. Hela cells were transfected using Lipofectamine 2000 reagents (Invitrogen), according to manufacturer's instructions. Where indicated, the day after transfection, cells were treated for 16 h with 10 μM proteasome inhibitors, MG132 or Lactacystin, or 50 ng/ml DUB inhibitor Ubiquitin-Aldehyde. […]
as §1
Cells were collected after the indicated treatments and fixed for 20 minutes in 4% paraformaldehyde at room temperature. […] After washing 3 times with PBS cells were analyzed by flow cytometry (Becton Dickinson). […]

Each structure is given as a SMILES string.

For the compound `O=[N+]([O-])c1cccc(/C=N/NS(=O)(=O)c2ccc(Cl)cc2)c1O` [Formula IV], the “accumulation of mature frataxin by SDS-PAGE and western blot” value at frataxin [1] (FRDA lymphoblasts GM15850, GM16798 and GM16214) is “accumulation of mature frataxin can be detected”. Moreover, the “frataxin accumulation by FACS analysis” value at frataxin [1] (FRDA lymphoblasts GM15850) is on record as “discrete frataxin accumulation detectable in all cells”. In addition, the aconitase activity entry in the data set with aconitase was “significantly boost”. The ATP levels result is recorded as “significantly boost” in data set [2] and “Rescue of ATP levels can also be achieved” in the data set on FRDA fibroblasts GM03816. Besides, in the data set on FRDA cells, the “tolerability by FRDA cells” value was “best tolerated”. For the same compound, the “frataxin accumulation by WB and FACS analysis” value at frataxin [3] is given as “effective in inducing frataxin accumulation”. In addition, the “frataxin accumulation by FACS and SDS-PAGE/western blot” value on frataxin [4] was “frataxin accumulation can be detected as early as 3 days of treatment”.

Values taken from patent US8703749B2, “Compositions and methods for treating Friedreich's Ataxia” (priority 2009, dated 2014).
